From the supplement of paper PMC8960247
Counter-ions that a name gives are not always drawn. ± gives the standard error.

Key:
[1] = tested on: 621-102 (TSC2-deficient); test: relative viability vs DMSO; higher = less cytotoxic; details: serum: 10% FBS, 72 h
[2] = tested on: 621-103 (TSC2-rescued); test: as above; details: serum: 10% FBS, 72 h
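Note: immortalized renal angiomyolipoma cells stably carrying empty vector or TSC2, dosed in 384-well plates in DMEM, viability normalized to vehicle-treated wells within each plate.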

CCCS(=O)(=O)Nc1ccc(F)c(C(=O)c2c[nH]c3ncc(Cl)cc23)c1F [PLX-4720]
relative viability ([1]; 0.0001 µM): 108 ± 2.7% | relative viability ([1]; 0.001 µM): 111 ± 4.3% | relative viability ([1]; 0.01 µM): 107 ± 4.4% | relative viability ([1]; 0.1 µM): 99.7 ± 4.8% | relative viability ([1]; 1 µM): 101 ± 3.2% | relative viability ([1]; 10 µM): 101 ± 1.9% | relative viability ([2]; 0.0001 µM): 102 ± 2.3% | relative viability ([2]; 0.001 µM): 100.7 ± 0.75% | relative viability ([2]; 0.01 µM): 99.2 ± 1.6% | relative viability ([2]; 0.1 µM): 99.5 ± 1.8% | relative viability ([2]; 1 µM): 99.18 ± 0.44% | relative viability ([2]; 10 µM): 103.4 ± 0.45%

CC(C)n1nc(-c2cc3cc(O)ccc3[nH]2)c2c(N)ncnc21 [PP242]
relative viability ([1]; 0.0001 µM): 93.3 ± 6.1% | relative viability ([1]; 0.001 µM): 95.7 ± 2.2% | relative viability ([1]; 0.01 µM): 103 ± 2% | relative viability ([1]; 0.1 µM): 101.44 ± 0.046% | relative viability ([1]; 1 µM): 46 ± 1.6% | relative viability ([1]; 10 µM): 16.86 ± 0.071% | relative viability ([2]; 0.0001 µM): 107 ± 6.5% | relative viability ([2]; 0.001 µM): 107.2 ± 0.94% | relative viability ([2]; 0.01 µM): 103 ± 2.7% | relative viability ([2]; 0.1 µM): 80.1 ± 1.7% | relative viability ([2]; 1 µM): 38 ± 0.41% | relative viability ([2]; 10 µM): 23.13 ± 0.076%

Nc1ncnc2c1c(-c1cnc3[nH]ccc3c1)nn2C1CCCC1 [PP-121]
relative viability ([1]; 0.0001 µM): 102 ± 4.8% | relative viability ([1]; 0.001 µM): 97.7 ± 2.4% | relative viability ([1]; 0.01 µM): 89.2 ± 0.2% | relative viability ([1]; 0.1 µM): 85 ± 1.9% | relative viability ([1]; 1 µM): 56.4 ± 0.66% | relative viability ([1]; 10 µM): 5.4 ± 0.81% | relative viability ([2]; 0.0001 µM): 104.1 ± 0.76% | relative viability ([2]; 0.001 µM): 103 ± 2.2% | relative viability ([2]; 0.01 µM): 99.74 ± 0.75% | relative viability ([2]; 0.1 µM): 86.8 ± 3.6% | relative viability ([2]; 1 µM): 41.5 ± 1.9% | relative viability ([2]; 10 µM): 10.2 ± 0.22%

CC(=O)O[C@H]1C(=O)[C@@]2(C)[C@H]([C@H](OC(=O)c3ccccc3)[C@]3(O)C[C@H](OC(=O)[C@H](O)[C@@H](NC(=O)c4ccccc4)c4ccccc4)C(C)=C1C3(C)C)[C@]1(OC(C)=O)CO[C@@H]1C[C@@H]2O [Paclitaxel]
relative viability ([1]; 0.0001 µM): 54.2 ± 1.8% | relative viability ([1]; 0.001 µM): 46.8 ± 2.3% | relative viability ([1]; 0.01 µM): 33.66 ± 0.22% | relative viability ([1]; 0.1 µM): 33.1 ± 0.46% | relative viability ([1]; 1 µM): 29.6 ± 1.3% | relative viability ([1]; 10 µM): 31.1 ± 2.3% | relative viability ([2]; 0.0001 µM): 69 ± 1.5% | relative viability ([2]; 0.001 µM): 59.3 ± 0.96% | relative viability ([2]; 0.01 µM): 40.8 ± 0.42% | relative viability ([2]; 0.1 µM): 34.5 ± 0.39% | relative viability ([2]; 1 µM): 28.7 ± 0.81% | relative viability ([2]; 10 µM): 42.3 ± 0.75%

CC(=O)O[C@H]1C[C@@H]2CC[C@@H]3[C@H](CC[C@@]4(C)[C@H]3C[C@H]([N+]3(C)CCCCC3)[C@@H]4OC(C)=O)[C@@]2(C)C[C@@H]1[N+]1(C)CCCCC1 [Pancuronium bromide]
relative viability ([1]; 0.0001 µM): 83.8 ± 6.4% | relative viability ([1]; 0.001 µM): 95.36 ± 0.26% | relative viability ([1]; 0.01 µM): 93.6 ± 3.5% | relative viability ([1]; 0.1 µM): 91.4 ± 3.3% | relative viability ([1]; 1 µM): 84.1 ± 1.2% | relative viability ([1]; 10 µM): 52.5 ± 0.78% | relative viability ([2]; 0.0001 µM): 97.7 ± 0.99% | relative viability ([2]; 0.001 µM): 104 ± 1.3% | relative viability ([2]; 0.01 µM): 101 ± 2.5% | relative viability ([2]; 0.1 µM): 95 ± 3.6% | relative viability ([2]; 1 µM): 93.8 ± 4.2% | relative viability ([2]; 10 µM): 51.35 ± 0.38%

Cc1ccc(Nc2nccc(N(C)c3ccc4c(C)n(C)nc4c3)n2)cc1S(N)(=O)=O [Pazopanib Hydrochloride]
relative viability ([1]; 0.0001 µM): 78.9 ± 0.89% | relative viability ([1]; 0.001 µM): 104 ± 5.5% | relative viability ([1]; 0.01 µM): 110 ± 5.6% | relative viability ([1]; 0.1 µM): 114.4 ± 0.52% | relative viability ([1]; 1 µM): 104.7 ± 0.87% | relative viability ([1]; 10 µM): 82.2 ± 1.6% | relative viability ([2]; 0.0001 µM): 92.7 ± 4.2% | relative viability ([2]; 0.001 µM): 99.2 ± 3.9% | relative viability ([2]; 0.01 µM): 102 ± 1.2% | relative viability ([2]; 0.1 µM): 102.1 ± 1% | relative viability ([2]; 1 µM): 100.8 ± 0.29% | relative viability ([2]; 10 µM): 55.9 ± 1.2%

CCOc1cc2ncc(C#N)c(Nc3ccc(F)c(Cl)c3)c2cc1NC(=O)/C=C/CN(C)C [Pelitinib]
relative viability ([1]; 0.0001 µM): 104 ± 2.2% | relative viability ([1]; 0.001 µM): 107.2 ± 0.9% | relative viability ([1]; 0.01 µM): 121.9 ± 0.77% | relative viability ([1]; 0.1 µM): 107 ± 4% | relative viability ([1]; 1 µM): 80.44 ± 0.46% | relative viability ([1]; 10 µM): 25.2 ± 3.6% | relative viability ([2]; 0.0001 µM): 102 ± 1.2% | relative viability ([2]; 0.001 µM): 101 ± 1.5% | relative viability ([2]; 0.01 µM): 100.5 ± 0.68% | relative viability ([2]; 0.1 µM): 98.7 ± 3% | relative viability ([2]; 1 µM): 65.38 ± 0.34% | relative viability ([2]; 10 µM): 19.6 ± 1.3%

CCC[C@H](N[C@@H](C)C(=O)N1[C@H](C(=O)O)C[C@@H]2CCCC[C@@H]21)C(=O)OCC [Perindopril Erbumine]
relative viability ([1]; 0.0001 µM): 101 ± 0.48% | relative viability ([1]; 0.001 µM): 106 ± 0.46% | relative viability ([1]; 0.01 µM): 98.6 ± 1.7% | relative viability ([1]; 0.1 µM): 104.3 ± 0.76% | relative viability ([1]; 1 µM): 107.29 ± 0.055% | relative viability ([1]; 10 µM): 73.7 ± 4.8% | relative viability ([2]; 0.0001 µM): 103.3 ± 0.76% | relative viability ([2]; 0.001 µM): 108.5 ± 0.44% | relative viability ([2]; 0.01 µM): 84.6 ± 1.6% | relative viability ([2]; 0.1 µM): 111 ± 3.4% | relative viability ([2]; 1 µM): 98.7 ± 11% | relative viability ([2]; 10 µM): 79.52 ± 0.69%

N=C(N)NC(=N)NCCc1ccccc1 [Phenformin HCl]
relative viability ([1]; 0.0001 µM): 114.3 ± 0.035% | relative viability ([1]; 0.001 µM): 113.5 ± 0.44% | relative viability ([1]; 0.01 µM): 113 ± 1.9% | relative viability ([1]; 0.1 µM): 112 ± 1.7% | relative viability ([1]; 1 µM): 110 ± 8% | relative viability ([1]; 10 µM): 105.3 ± 0.58% | relative viability ([2]; 0.0001 µM): 101 ± 5.7% | relative viability ([2]; 0.001 µM): 102 ± 2.7% | relative viability ([2]; 0.01 µM): 99.8 ± 1.6% | relative viability ([2]; 0.1 µM): 104 ± 3.9% | relative viability ([2]; 1 µM): 101 ± 5.7% | relative viability ([2]; 10 µM): 101.9 ± 0.52%

O=C1N=C(O)NC1(c1ccccc1)c1ccccc1 [Phenytoin sodium]
relative viability ([1]; 0.0001 µM): 121 ± 4.2% | relative viability ([1]; 0.001 µM): 90.6 ± 8.7% | relative viability ([1]; 0.01 µM): 94.9 ± 4.7% | relative viability ([1]; 0.1 µM): 86.6 ± 2.5% | relative viability ([1]; 1 µM): 92 ± 6% | relative viability ([1]; 10 µM): 100.3 ± 0.98% | relative viability ([2]; 0.0001 µM): 105 ± 2.1% | relative viability ([2]; 0.001 µM): 105.8 ± 0.97% | relative viability ([2]; 0.01 µM): 100 ± 2.4% | relative viability ([2]; 0.1 µM): 101 ± 2.9% | relative viability ([2]; 1 µM): 94.54 ± 0.49% | relative viability ([2]; 10 µM): 101.8 ± 0.76%

O=C1NC(=O)C(c2ccccc2)(c2ccccc2)N1 [Phenytoin]
relative viability ([1]; 0.0001 µM): 109 ± 0.34% | relative viability ([1]; 0.001 µM): 119 ± 4.6% | relative viability ([1]; 0.01 µM): 101 ± 3% | relative viability ([1]; 0.1 µM): 105 ± 1.9% | relative viability ([1]; 1 µM): 97.4 ± 5% | relative viability ([1]; 10 µM): 99.7 ± 1.3% | relative viability ([2]; 0.0001 µM): 105 ± 3.8% | relative viability ([2]; 0.001 µM): 106 ± 6.7% | relative viability ([2]; 0.01 µM): 100.3 ± 0.63% | relative viability ([2]; 0.1 µM): 106 ± 4.5% | relative viability ([2]; 1 µM): 101 ± 3% | relative viability ([2]; 10 µM): 101 ± 7.8%

COc1ccc(-c2nc3cc(C4=NNC(=O)CC4C)ccc3[nH]2)cc1 (stereo unspecified) [Pimobendan (Vetmedin)]
relative viability ([1]; 0.0001 µM): 105.47 ± 0.018% | relative viability ([1]; 0.001 µM): 106 ± 0.73% | relative viability ([1]; 0.01 µM): 103 ± 2.5% | relative viability ([1]; 0.1 µM): 108 ± 3.9% | relative viability ([1]; 1 µM): 101 ± 2.5% | relative viability ([1]; 10 µM): 87.99 ± 0.68% | relative viability ([2]; 0.0001 µM): 104 ± 2.3% | relative viability ([2]; 0.001 µM): 101.7 ± 0.57% | relative viability ([2]; 0.01 µM): 102.2 ± 0.15% | relative viability ([2]; 0.1 µM): 100 ± 3.2% | relative viability ([2]; 1 µM): 99.3 ± 3.6% | relative viability ([2]; 10 µM): 84.13 ± 0.39%

CN1C(C(=O)Nc2ccccn2)=C(O)c2ccccc2S1(=O)=O [Piroxicam]
relative viability ([1]; 0.0001 µM): 98.4 ± 3.2% | relative viability ([1]; 0.001 µM): 105 ± 8.5% | relative viability ([1]; 0.01 µM): 111.3 ± 0.51% | relative viability ([1]; 0.1 µM): 109 ± 4.4% | relative viability ([1]; 1 µM): 103 ± 1.4% | relative viability ([1]; 10 µM): 104 ± 9.8% | relative viability ([2]; 0.0001 µM): 110 ± 3% | relative viability ([2]; 0.001 µM): 125 ± 2.3% | relative viability ([2]; 0.01 µM): 126 ± 3.5% | relative viability ([2]; 0.1 µM): 119.6 ± 0.1% | relative viability ([2]; 1 µM): 112 ± 5% | relative viability ([2]; 10 µM): 116.42 ± 0.082%
